Read-outs that look alike come from different tables or passages of the source. Square brackets hold non-standard residues; d marks the D form. Peptide text beside a SMILES is read from it. * marks the point of attachment. NOTA(2S-Bn(4-NHCS)) = O=C(O)CN1CCN(CC(=O)O)C[C@H](Cc2ccc(NC(=S)*)cc2)N(CC(=O)O)CC1; Cit = NC(=O)NCCC[C@H](N)C(=O)O; Ahx = NCCCCCC(=O)O
Assay: In vivo biodistribution in HCT116 tumor-bearing mice
Settings: female, mouse, iv, total radioactivity, mean (SD), n = 5; for tissue to tissue ratio at 1 h: BALB/c nu/nu, 7.4 kBq, HCT116 tumor-bearing mice, 1 h after i.v. injection; for tissue uptake at 1 h / tissue uptake dose at 1 h: 7.4 kBq i.v. (tail vein), 1 h after injection, gamma counter; for tissue uptake dose at 1 h: stomach (whole organ), whole organ
Protocol: Animal experiments were conducted in accordance with our institutional guidelines and were approved by the Nagasaki University Animal Care Committee and the Kanazawa University Animal Care Committee. The animal experimental protocols were approved by the Committee on Animal Experimentation of Nagasaki University and Kanazawa University. BALB/c nu/nu mice (female; 4 weeks old) were supplied by Japan SLC (Shizuoka, Japan). The mice were maintained in a room at a constant ambient temperature and a 12/12 h light/dark cycle and were given free access to food and water. Mice were subcutaneously injected on their right shoulders with approximately 1.0 × 10^7 HCT116 cells. The tumors were allowed to reach 300–500 mm^3 (1–2 weeks after inoculation) before biodistribution studies were performed.
Each [^67Ga]Ga-NOTA-peptide (7.4 kBq) was administered to mice via tail vein injection in 100 μL of saline. The mice were euthanized 1 h after injection, and their organs were harvested. The tissues were weighed and the radioactivity in each sample was measured using an automated gamma counter (n = 5). The results are expressed as the percent injected dose per gram of tissue (%ID/g) or as %ID.

[1] = tumor/blood, read-out: Tumor/Blood ratio
[2] = tumor/muscle, read-out: Tumor/Muscle ratio
[3] = blood, HCT116 tumor-bearing BALB/c nu/nu mice, read-out: Biodistribution, Blood
[4] = brain, HCT116 tumor-bearing BALB/c nu/nu mice, read-out: Biodistribution, Brain
[5] = heart, HCT116 tumor-bearing BALB/c nu/nu mice, read-out: Biodistribution, Heart
[6] = intestine, HCT116 tumor-bearing BALB/c nu/nu mice, read-out: Biodistribution, Intestine
[7] = HCT116 tumor, BALB/c nu/nu mice, read-out: Biodistribution, Tumor
[8] = kidney, HCT116 tumor-bearing BALB/c nu/nu mice, read-out: Biodistribution, Kidney
[9] = liver, HCT116 tumor-bearing BALB/c nu/nu mice, read-out: Biodistribution, Liver
[10] = lung, HCT116 tumor-bearing BALB/c nu/nu mice, read-out: Biodistribution, Lung
[11] = muscle, HCT116 tumor-bearing BALB/c nu/nu mice, read-out: Biodistribution, Muscle
[12] = pancreas, HCT116 tumor-bearing BALB/c nu/nu mice, read-out: Biodistribution, Pancreas
[13] = spleen, HCT116 tumor-bearing BALB/c nu/nu mice, read-out: Biodistribution, Spleen
[14] = HCT116 tumor-bearing BALB/c nu/nu mice

tissue to tissue ratio at 1 h [1] | tissue to tissue ratio at 1 h [2] | tissue uptake at 1 h [3] [%ID/g] | tissue uptake at 1 h [4] [%ID/g] | tissue uptake at 1 h [5] [%ID/g] | tissue uptake at 1 h [6] [%ID/g] | tissue uptake at 1 h [7] [%ID/g] | tissue uptake at 1 h [8] [%ID/g] | tissue uptake at 1 h [9] [%ID/g] | tissue uptake at 1 h [10] [%ID/g] | tissue uptake at 1 h [11] [%ID/g] | tissue uptake at 1 h [12] [%ID/g] | tissue uptake at 1 h [13] [%ID/g] | tissue uptake dose at 1 h [14] [%ID] | SMILES
8.29 ± 3.41 | 3.54 | 0.28 | 0.03 | 0.53 | 0.44 | 1.83 ± 0.32 | 129 | 19.1 | 0.93 | 0.54 | 0.31 | 3.94 | 0.18 | CC(=O)NCCCCCC(=O)N[C@H](CCC(=O)O)C(=O)N[C@H](CCC(=O)O)C(=O)N[C@H](CCC(=O)O)C(=O)N[C@H](CCC(=O)O)C(=O)N[C@H](CCC(=O)O)C(=O)N[C@H](CCC(=O)O)C(=O)N[C@H](CCC(=O)O)C(=O)N[C@H](CCC(=O)O)C(=O)N[C@H](CCC(=O)O)C(=O)NCCCCCC(=O)N1CCC[C@H]1C(=O)N[C@@H](C)C(=O)N[C@@H](C)C(=O)N[C@@H](CC(N)=O)C(=O)N[C@H](C(=O)NCC(=O)N[C@H](CCCNC(=N)N)C(=O)N[C@H](CCCNC(=N)N)C(=O)N[C@H](CCCNC(=N)N)C(=O)N[C@H](CCCNC(=N)N)C(=O)N[C@H](CCCNC(=N)N)C(=O)N[C@H](CCCNC(=N)N)C(=O)N[C@H](CCCNC(=N)N)C(=O)N[C@H](CCCNC(=N)N)C(=O)N[C@H](CCCNC(=N)N)C(=O)NCCCCCC(=O)N[C@H](CCCCNC(=S)Nc1ccc(C[C@H]2CN(CC(=O)O)CCN(CC(=O)O)CCN2CC(=O)O)cc1)C(N)=O)C(C)C [[^67Ga]Ga-NOTA-LCP-1, metal not drawn] (Ac-[Ahx][dE][dE][dE][dE][dE][dE][dE][dE][dE][Ahx]PAANVG[dR][dR][dR][dR][dR][dR][dR][dR][dR][Ahx][dK](NOTA(2S-Bn(4-NHCS)))-NH2)
2.2 ± 0.69 | 2.47 | 0.46 | 0.04 | 0.44 | 0.63 | 0.97 ± 0.25 | 96.6 | 17.2 | 1.58 | 0.4 | 0.38 | 4.37 | 0.19 | CC(=O)NCCCCCC(=O)N[C@H](CCC(=O)O)C(=O)N[C@H](CCC(=O)O)C(=O)N[C@H](CCC(=O)O)C(=O)N[C@H](CCC(=O)O)C(=O)NCCCCCC(=O)N1CCC[C@H]1C(=O)N[C@@H](C)C(=O)N[C@@H](C)C(=O)N[C@@H](CC(N)=O)C(=O)N[C@H](C(=O)NCC(=O)N[C@H](CCCNC(=N)N)C(=O)N[C@H](CCCNC(=N)N)C(=O)N[C@H](CCCNC(=N)N)C(=O)N[C@H](CCCNC(=N)N)C(=O)N[C@H](CCCNC(=N)N)C(=O)NCCCCCC(=O)N[C@H](CCCCNC(=S)Nc1ccc(C[C@H]2CN(CC(=O)O)CCN(CC(=O)O)CCN2CC(=O)O)cc1)C(N)=O)C(C)C [[^67Ga]Ga-NOTA-LCP-3, metal not drawn] (Ac-[Ahx][dE][dE][dE][dE][Ahx]PAANVG[dR][dR][dR][dR][dR][Ahx][dK](NOTA(2S-Bn(4-NHCS)))-NH2)
4.39 ± 2.07 | 1.91 | 0.45 | 0.04 | 0.43 | 0.53 | 1.8 ± 0.51 | 122 | 17.4 | 1.08 | 0.96 | 0.64 | 3.15 | 0.22 | CC(=O)NCCCCCC(=O)N[C@H](CCC(=O)O)C(=O)N[C@H](CCC(=O)O)C(=O)N[C@H](CCC(=O)O)C(=O)N[C@H](CCC(=O)O)C(=O)N[C@H](CCC(=O)O)C(=O)N[C@H](CCC(=O)O)C(=O)N[C@H](CCC(=O)O)C(=O)N[C@H](CCC(=O)O)C(=O)N[C@H](CCC(=O)O)C(=O)NCCCCCC(=O)N1CCC[C@H]1C(=O)N[C@@H](C)C(=O)N[C@@H](C)C(=O)N[C@@H](CCCNC(N)=O)C(=O)N[C@H](C(=O)NCC(=O)N[C@H](CCCNC(=N)N)C(=O)N[C@H](CCCNC(=N)N)C(=O)N[C@H](CCCNC(=N)N)C(=O)N[C@H](CCCNC(=N)N)C(=O)N[C@H](CCCNC(=N)N)C(=O)N[C@H](CCCNC(=N)N)C(=O)N[C@H](CCCNC(=N)N)C(=O)N[C@H](CCCNC(=N)N)C(=O)N[C@H](CCCNC(=N)N)C(=O)NCCCCCC(=O)N[C@H](CCCCNC(=S)Nc1ccc(C[C@H]2CN(CC(=O)O)CCN(CC(=O)O)CCN2CC(=O)O)cc1)C(N)=O)C(C)C [[^67Ga]Ga-NOTA-NCP-1, metal not drawn] (Ac-[Ahx][dE][dE][dE][dE][dE][dE][dE][dE][dE][Ahx]PAA[Cit]VG[dR][dR][dR][dR][dR][dR][dR][dR][dR][Ahx][dK](NOTA(2S-Bn(4-NHCS)))-NH2)
2.54 | 2.7 | 0.41 | 0.04 | 0.56 | 0.54 | 0.95 | 73.3 | 20.8 | 1.36 | 0.43 | 0.46 | 5.38 | 0.12 | CC(=O)NCCCCCC(=O)N[C@H](CCC(=O)O)C(=O)N[C@H](CCC(=O)O)C(=O)N[C@H](CCC(=O)O)C(=O)N[C@H](CCC(=O)O)C(=O)NCCCCCC(=O)N1CCC[C@H]1C(=O)N[C@@H](C)C(=O)N[C@@H](C)C(=O)N[C@@H](CCCNC(N)=O)C(=O)N[C@H](C(=O)NCC(=O)N[C@H](CCCNC(=N)N)C(=O)N[C@H](CCCNC(=N)N)C(=O)N[C@H](CCCNC(=N)N)C(=O)N[C@H](CCCNC(=N)N)C(=O)N[C@H](CCCNC(=N)N)C(=O)NCCCCCC(=O)N[C@H](CCCCNC(=S)Nc1ccc(C[C@H]2CN(CC(=O)O)CCN(CC(=O)O)CCN2CC(=O)O)cc1)C(N)=O)C(C)C [[^67Ga]Ga-NOTA-NCP-3, metal not drawn] (Ac-[Ahx][dE][dE][dE][dE][Ahx]PAA[Cit]VG[dR][dR][dR][dR][dR][Ahx][dK](NOTA(2S-Bn(4-NHCS)))-NH2)

Reference: paper PMC12693633, “Synthesis and Evaluation of Radiogallium-Labeled Peptide Probes for In Vivo Imaging of Legumain Activity” (Molecules, 2025)
